The values that follow come from patent US11813277B2, “Methods and agents for modulating inflammation” (The Regents of the University of California, priority 2018, dated 2023).

For assay [1], the system named is phosphate (Pi) transporter. The assay is described as follows: Phosphate transporter assay (mitochondrial swelling). It is filed as biochemical, rat. The conditions noted are these: 250 μM etomoxir, 100 μM NEM, 10 μM mersalyl. The procedure:
Phosphate transport was measured by monitoring swelling of de-energized mitochondria in isotonic potassium phosphate medium based upon principles described by Coty, W. A. and Pedersen, P. L. (1975) Phosphate transport in rat liver mitochondria. Kinetics, inhibitor sensitivity, energy requirements, and labeled components. Mol Cell Biochem. 9, 109-24. As the phosphate carrier acts as electroneutral symporter with protons, the process is self-restricting due to generation of an opposing pH gradient. […] In the presence of nigericin, the proton fluxes cycle resulting in electro- and pH-neutral transport of potassium phosphate down its concentration gradient into the mitochondrial matrix, resulting in osmotic accumulation of water. Under these conditions, transport is limited by the activity of phosphate carrier, and can be recorded as mitochondrial swelling (a decrease in light scattering).
The measurements were performed in an LS-50B spectrofluorometer (Perkin-Elmer) at 540 nm. Assay medium contained 125 mM potassium phosphate, pH 7.2, 0.5 mM EGTA, and 2 μM rotenone. Mouse liver mitochondria (0.5 mg/ml) were treated with 250 μM etomoxir, 100 μM N-ethylmaleimide (NEM) (Klingenberg, M., Durand, R., and Guerin, B. (1974) Analysis of the reactivity of SH-reagents with the mitochondrial phosphate carrier. Eur J Biochem, 42, 135-150) or 10 μM mersalyl (Paradies, G. and Ruggiero, F. M. (1991) Effect of aging on the activity of the phosphate carrier and on the lipid composition in rat liver mitochondria. Arch Biochem Biophys. 284, 332-337) and the reaction was started with 5 μM nigericin. Typical traces from 3 experiments are shown. To establish the maximally swollen state of mitochondria, 80 μg/ml alamethicin was used.

In assay [2] the test system is M(IL-4) polarization of BMDMs. The assay is described as follows: Flow cytometry of IL-4-associated cell surface markers in BMDMs. Type of assay: cell-based, mouse. As to conditions: for population of CD206+/CD71+ cells: oxidative phosphorylation inhibitors co-treated with IL-4; for number of cells positive for both CD206 and CD71: IL-4. The procedure: (§1) For all gene expression and flow cytometry experiments described below, day 6 BMDM were plated at 3×10^5 cell/well in 12-well plates. The next day, cells were treated with appropriate compounds (and duration as indicated in figures and below) in DMEM supplemented with 5% FBS, 2 mM L-glutamine, 100 units/mL, 100 μg/mL penicillin/streptomycin, 500 μM of sodium pyruvate and 5% v/v conditioned media containing macrophage colony stimulating factor (M-CSF).
(§2) For flow cytometry experiments involving etomoxir (FIG. 1G, FIG. 2A, FIG. 2D, FIG. 3A, FIG. 3B, FIG. 3G, FIG. 3H): BMDMs were mock-treated (media replacement only) or treated with 20 ng/mL of IL-4±3 μM or 200 μM of etomoxir for 48 hr. When measuring expression of M(IL-4)-associated genes in response to etomoxir (FIG. 1H, FIG. 2B), BMDMs were mock-treated or treated with 20 ng/mL of IL4±etomoxir as indicated for 24 hr.
(§3) For experiments involving respiratory chain inhibitors: BMDMs were mock-treated (media replacement only) or treated with 20 ng/mL of IL4±1.2 μM oligomycin (Oligo), 200 nM rotenone (Rot), 200 nM antimycin A (AntiA), 100 nM piericidin A (PierA), or 5 μM carboxyatractylate (CAT) for either 24 (FIG. 4G, FIG. 4H, FIG. 6G) or 48 hr (FIG. 4F, FIG. 7D). All inhibitors were given as co-treatments simultaneously with IL-4.
For experiments involving CoA supplementation (FIG. 10A, FIG. 10B, FIG. 10C, FIG. 10D, FIG. 10E, FIG. 9C, FIG. 9D): BMDMs were mock-treated (media replacement only) or treated with 20 ng/mL of IL4±etomoxir (concentration indicated in figures)±CoA (concentration indicated in figures) for 48 hr. Etomoxir and CoA were given as co-treatments simultaneously with IL-4.
Prior to FACS analysis, BMDMs were detached using 350 μL of Accutase, followed by two washes with FACS buffer (PBS+1% (v/v) BSA+0.05% (w/v) sodium azide). Anti-mouse CD16/32 antibody was used at a dilution of 1:500, while all other antibodies were used at a dilution of 1:250. All flow cytometry data were captured using BD FACSVerse flow cytometer and analyzed using the FlowJo X 10.0.7r2 software. In all, 2×104 live events were acquired for each sample (gated on DAPIneg). For analysis, CD206+/CD71+ and CD206+/CD301+ populations were gated based on Fluorescence Minus One (FMO) controls.
For orientation: Flow cytometry measures light scatter and fluorescence of single cells or particles in a stream.

Assay [3] deals with Relma, Mgl2, Ym1, Fabp4, Arg1 expression. In words: qPCR of IL-4-associated genes in BMDMs. It is filed as cell-based, mouse. The conditions noted are these: for IL-4-induced expression of Relma, Ym1, Mgl2: electron transport chain inhibitors. The procedure: as §1, §2, §3
RNA was isolated with TRIzol, then cDNA was synthesized with high-capacity cDNA reverse transcription kit. KAPA SYBR FAST qPCR Master Mix kit and a LightCycler 480 were used for quantitative RT-PCR. Fold change related to the control group was calculated using […] with 36b4 as the reference gene.
Background: Quantitative PCR measures a nucleic acid by following its amplification.

In assay [4] the test system is BMDMs. In words: Basal mitochondrial respiration in intact BMDMs. It is filed as cell-based, mouse. As to conditions: 1.2 μM oligomycin, 200 nM rotenone, 200 nM antimycin A, 100 nM piericidin A, 5 μM CAT. The method, then: All respirometry studies were conducted in either a Seahorse XF96 or XFe96 Analyzer. All experiments were conducted at 37° C., and at pH 7.4 (intact cells) or 7.2 (permeabilized cells and isolated mitochondria). Calculation of respiratory parameters was made according to standard protocols (Divakaruni, A. S., Paradyse, A., Ferrick, D. A., Murphy, A. N., and Jastroch, M. (2014a) Analysis and interpretation of microplate-based oxygen consumption and pH data. Meth. Enzym 547, 509-54), and all rates were corrected for non-mitochondrial respiration/background signal by subtracting the oxygen consumption rate insensitive to rotenone plus antimycin A.
Respiration in intact BMDMs was measured in medium containing 8 mM glucose, 2 mM glutamine, 2 mM pyruvate, and 5 mM HEPES. Cells were plated at 5.0×10^4 cells/well and assayed after 48 hr. When measuring the response to IL-4, cells were treated with 20 ng/mL of IL-4 24 hr. after initial plating, and respiration was measured the following day (˜48 hr after initial seeding). […]

For assay [5], the system named is LCFA oxidation in BMDMs. The assay is described as follows: 9,10-3H-palmitate oxidation (3H2O release) in BMDMs. Type of assay: cell-based, mouse. As to conditions: 200 nM rotenone or 200 nM antimycin A, IL-4-stimulated. The procedure:
BMDMs at day 6 of differentiation were seeded at 3×10^5 cells/well in 12 well plates in BMDM media. The next day, cells were treated in DMEM containing 25 mM glucose supplemented with 5% FBS, 2 mM L-Glutamax, 100 units/mL, 100 μg/mL penicillin/streptomycin, 1 mM of sodium pyruvate, 1 mM carnitine, and 5% v/v conditioned media containing macrophage colony stimulating factor (M-CSF) under one of 5 conditions: control, 20 ng/mL of IL-4±3 μM or 200 μM of etomoxir, or 200 nM rotenone, or 200 nM antimycin A for 24 hr. Fatty acid oxidation was measured 24 hours later as previously described (Rognstad, R. (1991) Estimation of peroxisomal and mitochondrial fatty acid oxidation in rat hepatocytes using tritiated substrates. Biochem J 279:147-150, 1991; Cha, B. S., Ciaraldi, T. P., Park, K. S., Carter, L., Mudaliar, S. R., and Henry R R. (2005) Impaired fatty acid metabolism in type 2 diabetic skeletal muscle cells is reversed by PPARgamma agonists. Am J Physiol Endocrinol Metab. 289, E151-9) following a fluid change to DMEM with components as described above except 10 mM glucose and 0.2 μCi (final concentration of 5 μM) BSA-conjugated [9,10-3H]palmitic acid. No additional IL-4 was added at the time of this fluid change, but etomoxir, rotenone and antimycin A were added, and the plates were placed in a […] incubator at 37° C. for 3 hr. After incubation, a 100 μL aliquot of the culture medium was passed over an ion-exchange resin, and the column was washed twice with 0.75 ml of water. Free fatty acids were retained by the resin, whereas the tritium hydrolyzed from radiolabeled palmitate catabolism was released as labeled water, which passes freely through the resin, and is subsequently counted for radioactivity. All data are corrected for protein content in each well. There were 3 technical replicates for each condition, and 4 biological replicates arising from 4 separate animals.

The test system of assay [6] is adenine nucleotide translocase (ANT). The assay is described as follows: ATP hydrolysis in isolated mitochondria, intact or alamethicin-permeabilized. Type of assay: biochemical, rat. The text has this:
ATP hydrolysis in isolated mitochondria (McQuaker, S. J., Quinlan, C. L., Caldwell, S. T., Brand, M. D., and Hartley, R. C. (2013). A prototypical small molecule modulator uncouples mitochondria in response to endogenous hydrogen peroxide production. Chembiochem. 14, 993-1000; Divakaruni, A. S., Andreyev, A. Y., Rogers, G. W., and Murphy, A. N. (2017a) In situ measurements of mitochondrial matrix enzyme activities using plasma and mitochondrial membrane permeabilization agents. Anal. Biochem. 17, 30385-8) was performed in MAS buffer, and stimulated by respiratory chain inhibition (1 μM rotenone and 2 μM antimycin A) followed by addition of excess ATP (25 mM) and uncoupler (1 μM FCCP). Hydrolysis was inhibited by injection of either oligomycin (3 ng/mg mitochondrial protein) or carboxyatractylo side (7.5 ng/mg mitochondrial protein). Rates of extracellular acidification (ECAR, in mpH/min) were converted to proton production rates (PPR, in pmol H+/min) by determining the buffer capacity with sequential injections of HCl and H2SO4 (Mookerjee, S. A., Goncalves, R. L., Gerencser, A. A., Nicholls, D. G., and Brand, M. D. (2015). The contributions of respiration and glycolysis to extracellular acid production. Biochim et Biophys Acta. 1847, 171-81). 10 μg/mL alamethicin was used to permeabilize the mitochondrial inner membrane (1 μg/mg mitochondrial protein).

The mark [7] stands for this setting: alamethicin-permeabilized mitochondria.
Where [8] appears, read: intact isolated mitochondria, etomoxir 100 μM, CAT 7.5 ng/mg, oligomycin 3 ng/mg.

Consider `CCN1C(=O)C=CC1=O` [N-ethyl maleimide, N-ethylmaleimide], for which the “Pi transporter activity (rate of swelling)” value in assay [1] is given as “inhibited the rate of swelling”.

`C/C=C(\C)[C@H](O)[C@H](C)/C=C(C)/C=C/C/C(C)=C/Cc1nc(OC)c(OC)c(O)c1C` [piericidin A]: in assay [2], the “population of CD206+/CD71+ cells” value is reported as “none of the inhibitors of ATP synthesis or the electron transport chain significantly lowered”. Further, the “IL-4-induced expression of Relma, Ym1, Mgl2” value in assay [3] (IL-4, 24 hr) is recorded as “failed to reduce”. The “expression of Ym1 and Arg1” value in assay [3] (mitochondrial inhibitors, IL-4, 24 hr) is “increased expression”. Also, the “respiration at 24 hr” value in assay [4] is reported as “strongly reduced respiration”.

Regarding antimycin A, the “population of CD206+/CD71+ cells” value in assay [2] was “none of the inhibitors of ATP synthesis or the electron transport chain significantly lowered”. Moreover, in assay [3] (IL-4, 24 hr), the “IL-4-induced expression of Relma, Ym1, Mgl2” value is “failed to reduce”. In assay [5], the “3H2O release from 9,10-3H-palmitate” value is “suppressed LCFA oxidation to levels in line with 200 μM etomoxir”. In addition, the “respiration at 24 hr” value in assay [4] is reported as “strongly reduced respiration”.

On to `CC[C@H]1/C=C/C=C/C[C@@H](C)[C@H](O)[C@@](C)(O)C(=O)[C@@H](C)[C@H](O)[C@@H](C)C(=O)[C@@H](C)[C@H](O)[C@@H](C)/C=C/C(=O)O[C@@H]2[C@H](C)[C@H](CC1)O[C@]1(CC[C@H](C)[C@H](C[C@@H](C)O)O1)[C@H]2C` [oligomycin], for which the ATP hydrolysis result was “remained inhibitory” in assay [6] (setting [7]) and “inhibited ATP hydrolysis” in assay [6] (setting [8]). In addition, the “population of CD206+/CD71+ cells” value in assay [2] is “none of the inhibitors of ATP synthesis or the electron transport chain significantly lowered”. In addition, the “respiration at 24 hr” value in assay [4] is given as “strongly reduced respiration”.

For `CC(=O)SCCNC(=O)CCNC(=O)[C@H](O)C(C)(C)COP(=O)(O)OP(=O)(O)OC[C@H]1O[C@@H](n2cnc3c(N)ncnc32)[C@H](O)[C@@H]1OP(=O)(O)O` [acetyl CoA], the “number of cells positive for both CD206 and CD71” value was “cannot reproduce the effect of CoA” in assay [2] (500 μM acetyl CoA) and “counteracts the effect of CoA” in assay [2] (acetyl CoA with CoA, both 500 μM). For the same compound, in assay [3] (500 μM acetyl CoA), the “expression of Arg1, Mgl2 and Fabp4” value is listed as “different effects than CoA”.

Regarding `C=C1[C@@H]2CC[C@H]3[C@]4(C)C[C@H](O[C@@H]5O[C@H](CO)[C@@H](OS(=O)(=O)O)[C@H](OS(=O)(=O)O)[C@H]5OC(=O)CC(C)C)CC(C(=O)O)(C(=O)O)[C@H]4CC[C@]3(C2)[C@H]1O` [carboxyatractyloside], the results for the ATP hydrolysis entry in assay [6] (setting [7]) and in assay [6] (setting [8]) were “no effect” and “inhibited ATP hydrolysis”, respectively. In addition, in assay [2], the “population of CD206+/CD71+ cells” value is “none of the inhibitors of ATP synthesis or the electron transport chain significantly lowered”. For the same compound, the “respiration at 24 hr” value in assay [4] is “strongly reduced respiration”.

For the compound `COC(CNC(=O)c1ccccc1OCC(=O)O)[CH2][Hg][OH]` (stereo not drawn) [mersalyl], the “Pi transporter activity (rate of swelling)” value in assay [1] is “inhibited the rate of swelling”.
